Test results taken from EP0319316A2, “Griseolic acid monoesters, their preparation and use” (SANKYO COMPANY LIMITED, priority 1987, dated 1989).

What was measured:
[1] = test system: IOP; experiment: IOP lowering effect, area between IOP-time curves (Experiment 6); type: in vivo, male New Zealand white rabbits; conditions: Concentration 2.0 %; 25 µℓ three times every 2 minutes; ratio of areas between IOP lines
Procedure: In the following Experiments 1 to 6, the test animals used were male New Zealand white rabbits, each weighing about 2.5 kg, raised in a room where the room temperature, relative humidity and lighting time were controlled to be 23° C, 60% and from 07:00 to 19:00, respectively. The animals were chosen from those where no abnormalities could be detected in their eyes by observation with the naked eye. They were given water freely but feed was restricted.
The compound under test was dissolved in 100 mM of a sodium phosphate buffer solution (pH 7.2) containing a small amount of a 0.1 N aqueous solution of sodium hydroxide. In the case of timolol maleate, a 0.5% w/v eye lotion (Timoptol 0.5%, Santen Pharm. Co.) was used as such.
The cornea of the rabbit was anesthetized by the topical application of one or two drops of 0.4% oxybuprocaine hydrochloride. The IOP was measured two or three times for each eye and the mean value was calculated and is reported as the IOP value. After the IOP of the rabbit eye had been measured, 25 µℓ of the sample solution was applied to center of the cornea of one eye three times every 2 minutes. The other eye was treated with the vehicle alone in a similar way. The IOP of both eyes was then measured.
IOP values obtained from both eyes were plotted against times after application and the area enclosed by the two IOP lines (with and without the active compound) was calculated. The IOP lowering effect of each sample was expressed as a ratio of the area described above to that of 0.5^0/o timolol.

[2] = test system: Male F344 rats; experiment: Acute toxicity in the rat (Experiment 7); type: in vivo; conditions: single, observation one week
Procedure: Animals: Male F344 rats were used, each group consisting of 3 animals.
Drug preparation and administration: the compound of Example 19(b) was dissolved in distilled water and administered subcutaneously to the rats in a volume of 0.5 ml per 100 g of body weight. Observation of the rats was carried out over a period of one week.

[3] = test system: Male F344 rats; experiment: Four-day toxicity in the rat (Experiment 8); type: in vivo
Procedure: Animals: Male F344 rats were used, each group consisting of 5 animals.
Drug preparation and administration: the compound of Example 19(b) was dissolved in distilled water and administered subcutaneously to the rats in a volume of 0.4 ml per 100 g of body weight at 09:00 for 4 days. Twenty-four hours after the final dose the rats were anesthetized with diethyl ether and their blood and organs were collected, weighed and used for pathological examination.

[4] = parameters: species or system Male albino rabbits; conditions: rabbit, in vivo
Procedure: Animals: Male albino rabbits, each weighing about 2.5 kg, were used in a group of 5 animals.
Drug preparation and administration: the compound of Example 19(b) was dissolved in a 0.1 M sodium phosphate buffer (pH 7.2) and administered topically to one eye of the rabbit twice a day at […] and 16:00 for one week, although the administration at 16:00 on the final day was not carried out. The other group was left intact as a control. Four hours after the final administration at 09:00, blood was collected from the marginal ear vein of the rabbit in a syringe, and was centrifuged to obtain the serum.
Biochemical analysis of the serum: the rabbit serum was biochemically analyzed for trigly.ceride (TG), total cholesterol (T-CHO), alkaline phosphatase (ALP), total protein (TP), phospholipid (PL), urea nitrogen (UN), glucose (GLU), transaminase (GOT and GPT), albumin (ALB), total calcium (CA), inorganic phosphorus (IP), creatinine (CRE), and ratio of albumin to globulin (A/G). The analysis was carried out by using an autoanalyzer (HITACHI, Japan).

[5] = test system: eyes; experiment: Eye irritation by the Draize method (Experiment 11); type: in vivo, male New Zealand white rabbit; conditions: 2% by weight solution, 0.05 ml three times a day for seven days, right eye
Procedure: The irritation to the eyes caused by solutions of the compound of Example 19(b) was determined by the Draize method [J.H. Draize et af., J. Pharmacol. Exp. Ther., 82,377 (1944)] and evaluated by the method of Kay and Calandra [J.H. Kay and J.C. Calandra, J. Soc. Cosmet. Chem., 13, 281 (1962)].
The test solution employed was a simple solution of 2% by weight of the test compound in 100 mM of a sodium phosphate buffer (pH 7.2) for injections and adjusted to a pH value of from 7 to 8, as required.
A male New Zealand white rabbit of body weight about 2.5 kg was placed in a pillory to fix its head. 0.05 ml of the test solution was instilled into its right eye three times a day (at 09:00, 13:00 and 17:00) for seven days. The symptoms experienced by the anterior portion of the right eye were observed every day at 18:00 over a period of seven days, and the irritation observed was scored.

[6] = test system: Balb/3T3 cells; conditions: 10 min, 500 µM
Procedure: Balb/3T3 cells were incubated in Dulbecco's modified Eagle medium (glucose-rich) containing 100/o v/v bovine fetal serum. […] The sample was then dissolved in a buffer solution prepared by the further addition of 4 mM of calcium chloride to the buffer solution mentioned above. If the sample was difficult to dissolve in water, it was dissolved first in dimethyl sulphoxide (DMSO) and then the resulting solution was diluted with the buffer (the final concentration of DMSO was determined to be 0.1%). The cell suspension was preincubated at 30° C for 5 minutes, and 100 µℓ of this suspension were added to 100 µℓ of the sample solution to initiate enzymatic reaction. After incubation at 30° C for 10 minutes, 20 µℓ of 1 N aqueous hydrochloric acid was added to stop the reaction. The reaction mixture was then centrifuged at 3000 rpm for 3 minutes to obtain 100 µℓ of the supernatant. Cyclic 3',5'-adenosine monophosphate (cAMP) contained in the supernatant was quantitatively analyzed by radioimmunoassay using a Yamasa cAMP radioimmunoassay kit YSI-7701. The CAMP accumulating effect is reported as the ratio between the value measured using a test compound and that measured in the control.

[7] = parameters: species or system Male albino rabbits; conditions: rabbit, in vivo; remark: listed apart in the source

Compound: CC(=O)Oc1ccc(COC(=O)C23C=C(C(O)C(=O)O)OC2C(O)C(n2cnc4c(N)ncnc42)O3)cc1 (stereo not drawn) [Example 19(b), 9'-(4-Acetoxybenzyl) griseolate]
- IOP Lowering Effect (Ratio to 0.5% timolol) [1]: 2.35
- death rate ([2]; dose 25 mg/kg subcutaneously): 0/3
- death rate ([2]; dose 50 mg/kg subcutaneously): 0/3
- death rate ([2]; dose 100 mg/kg subcutaneously): 3/3
- death rate ([3]; dose 6.25 mg/kg subcutaneously for 4 days): 0/5
- death rate ([3]; dose 12.5 mg/kg subcutaneously for 4 days): 0/5
- death rate ([3]; dose 25 mg/kg subcutaneously for 4 days): 0/5
- death rate ([3]; dose 50 mg/kg subcutaneously for 4 days): 5/5
- A/G [4]: 15.6 ± 2.5
- ALB [4]: 5.0 ± 0.1 g/dL
- ALP [4]: 379.0 ± 49.0 IU/ℓ
- CA [4]: 14.0 ± 0.2 mg/dL
- CRE [4]: 0.90 ± 0.05 mg/dL
- GLU [4]: 137.0 ± 3.0 mg/dL
- GOT [4]: 9.6 ± 1.5 IU/ℓ
- GPT [4]: 19.6 ± 3.9 IU/ℓ
- PL [4]: 91.8 ± 4.6 mg/dL
- T-CHO [4]: 45.0 ± 3.2 mg/dL
- TG [4]: 58.4 ± 5.4 mg/dL
- TP [4]: 5.3 ± 0.2 g/dL
- UN [4]: 17.9 ± 0.9 mg/dL
- irritation to the eyes [5]: No significant stimulus was observed
- cAMP accumulating effect [6]: 16
- IP [7]: 5.1 ± 0.5 mg/dL
